From patent US11447525B2 (NIIGATA UNIVERSITY, priority 2018, dated 2022) come the findings set out here.

Series [1] deals with BxPC3 cells, PK-8 cells, AsPC1 cells and MIA-Paca2 cells (PDAC). Briefly: Accumulation of PCPP11 and partially deleted peptides in cells (Reference Example 3). It is filed as cell-based, human. The conditions noted are these: for order of the strength of fluorescence in the pancreatic cancer cells: same method as Test Example 2; for fluorescence detected (absorbed fluorescence): same method as Test Example 2 (2 μM, 37° C., 2 hours). As to the method:
Test were conducted confirming the accumulation of PCPP11 and partially deleted peptides thereof in BxPC3 cells, PK-8 cells, AsPC1 cells and MIA-Paca2 cells (all cell lines derived from human invasive pancreatic ductal adenocarcinoma (PDAC)) and in H2110 cells (lung adenocarcinoma cells). The peptides shown below in Table 10 were used.
Using the same method as Test Example 2, each peptide was added to each of the cells and then observed under a microscope. In FIG. 16, “full length” indicates the cells to which FAM-PCPP11 was added, “trunc-ver1” indicates cells to which a trunc-ver1-PCPP11 was added, “trunc-ver2” indicates cells to which a trunc-ver2-PCPP11 was added, and “trunc-ver3” indicates cells to which a trunc-ver3-PCPP11 was added.

Series [2] is described as follows: Degradation test by human blood plasma, MALDI-TOFMS analysis. The settings on record: 50% by mass human blood plasma; 120 min; read-out: degradation resistance (proportion of the peptide retained without degradation). It is filed as in vitro ADME. The protocol:
Specifically, a peptide composed of the amino acid sequence represented by SEQ ID NO: 1 (hereafter sometimes referred to as “PCPP11”) was added to human blood plasma having a concentration of 50% by mass, the mixture was sampled immediately after starting the degradation test (after 0 minutes), and then after 5 minutes, after 10 minutes, after 20 minutes, after 30 minutes, after 60 minutes and after 120 minutes, and the samples were analyzed by MALDI-TOFMS (Matrix Assisted Laser Desorption/Ionization-Time Of Flight Mass Spectrometry). In Table 2, “UK” is an abbreviation for “unknown”. Further, the No. shown for each peptide in Table 2 corresponds with the numerical value recorded on the peaks of the graphs shown in FIG. 1.
Each of the peptides described above was added to human blood plasma having a concentration of 50% by mass, the resulting mixture was sampled immediately after starting the degradation test (after 0 minutes), and then after 5 minutes, after 10 minutes, after 20 minutes, after 30 minutes, after 60 minutes and after 120 minutes, and the samples were analyzed by MALDI-TOFMS. The results are shown in FIGS. 2 to 6 and Tables 4 to 6 shown below. Furthermore, the data for the degradation test by human blood plasma using PCPP11 from Reference Example 1 and the degradation tests by human blood plasma using each of the above peptides are collated in FIG. 7 and Table 7. The SEQ ID NO listed for the FAM-labeled peptide represents the SEQ ID NO of the peptide portion. Further, the No. shown for each peptide in Tables 4 to 6 corresponds with the numerical value recorded on the peaks of the graphs shown in FIGS. 2 to 6. In each table, in those cases where the numerical values are shown separated into an upper row and a lower row, the upper row value indicates the proportion (%) of peak area for two or more peptides relative to the total peak area in the MALDI-TOFMS analysis. On the other hand, the lower row value indicates the proportion (%) of each peptide when the peak area for the two or more peptides is deemed to be 100%. Moreover, for example, for the peptide No. 9 shown in Table 4, the left-side “70.0%” indicates the proportion (%) of the peptide No. 9 when the total peak area for the peptides No. 9 to 11 is deemed to be 100%, whereas the right-side “65%” indicates the proportion (%) of the peptide No. 9 relative to the total peak area in the MALDI-TOFMS analysis. This system is also used in the following tables.

Series [3] is described as follows: human blood plasma having a concentration of 50% by mass. The conditions noted are these: up to 120 minutes.

Entries after “also recorded” stand apart in the source; their conditions may differ. Non-standard residues stand in square brackets, D forms with d. Residues, ends and D or L forms follow the SMILES beside them. No end group written: not given here. *: point of attachment. 5FAM = O=C1OC2(c3ccc(O)cc3Oc3cc(O)ccc32)c2ccc(C(=O)*)cc21; NMeR = CN[C@@H](CCCNC(=N)N)C(=O)O

`C[C@@H](O)[C@H](NC(=O)[C@@H](NC(=O)[C@@H]1CCCN1C(=O)[C@H](CCCNC(=N)N)NC(=O)c1ccc2c(c1)C(=O)OC21c2ccc(O)cc2Oc2cc(O)ccc21)[C@@H](C)O)C(=O)N[C@@H](Cc1c[nH]c2ccccc12)C(=O)N[C@@H](Cc1c[nH]cn1)C(=O)N[C@@H](CCCCN)C(=O)N1CCC[C@H]1C(=O)O` [FAM-trunc-ver1-PCPP11] (5FAM-RPTTWHKP-OH; C-terminus assumed): the “order of the strength of fluorescence in the pancreatic cancer cells” value (“order of the strength of fluorescence” below) in series [1] was “full-length≥trunc-ver3>trunc-ver1>>trunc-ver2”.
On to `C[C@@H](O)[C@H](NC(=O)c1ccc2c(c1)C(=O)OC21c2ccc(O)cc2Oc2cc(O)ccc21)C(=O)N[C@H](C(=O)N[C@@H](Cc1c[nH]c2ccccc12)C(=O)N[C@@H](Cc1c[nH]cn1)C(=O)N[C@@H](CCCCN)C(=O)N1CCC[C@H]1C(=O)O)[C@@H](C)O` [FAM-trunc-ver2-PCPP11, [FAM]-TTWHKP] (5FAM-TTWHKP-OH; C-terminus assumed), for which, in series [1], the “order of the strength of fluorescence” value was “full-length≥trunc-ver3>trunc-ver1>>trunc-ver2” and the “fluorescence detected (absorbed fluorescence)” value is “marked reduction in absorbed fluorescence”.
On to `C[C@@H](O)[C@H](NC(=O)[C@@H](NC(=O)[C@@H]1CCCN1C(=O)[C@H](CCCNC(=N)N)NC(=O)[C@H](CCCNC(=N)N)NC(=O)c1ccc2c(c1)C(=O)OC21c2ccc(O)cc2Oc2cc(O)ccc21)[C@@H](C)O)C(=O)N[C@@H](Cc1c[nH]c2ccccc12)C(=O)N[C@@H](Cc1c[nH]cn1)C(=O)O` [FAM-trunc-ver3-PCPP11, [FAM]-RRPTTWH] (5FAM-RRPTTWH-OH; C-terminus assumed), for which, in series [1], the “order of the strength of fluorescence” value is recorded as “full-length≥trunc-ver3>trunc-ver1>>trunc-ver2”.
Regarding `C[C@@H](O)[C@H](NC(=O)[C@@H](NC(=O)[C@@H]1CCCN1C(=O)[C@H](CCCNC(=N)N)NC(=O)c1ccc2c(c1)C(=O)OC21c2ccc(O)cc2Oc2cc(O)ccc21)[C@@H](C)O)C(=O)N[C@@H](Cc1c[nH]c2ccccc12)C(=O)O` [FAM-trunc-ver4-PCPP11, [FAM]-RPTTW] (5FAM-RPTTW-OH; C-terminus assumed), in series [1], the “fluorescence detected (absorbed fluorescence)” value was “almost no fluorescence was observed”.
On the same count and under the same terms, for `C[C@@H](O)[C@H](NC(=O)[C@@H](NC(=O)[C@@H]1CCCN1C(=O)c1ccc2c(c1)C(=O)OC21c2ccc(O)cc2Oc2cc(O)ccc21)[C@@H](C)O)C(=O)N[C@@H](Cc1c[nH]c2ccccc12)C(=O)N[C@@H](Cc1c[nH]cn1)C(=O)O` [FAM-trunc-ver5-PCPP11, [FAM]-PTTWH] (5FAM-PTTWH-OH; C-terminus assumed) the value was “almost no fluorescence was observed”.
As to `C[C@@H](O)[C@H](NC(=O)[C@@H](NC(=O)[C@@H]1CCCN1C(=O)[C@H](CCCNC(=N)N)NC(=O)[C@H](CCCNC(=N)N)NC(=O)c1ccc2c(c1)C(=O)OC21c2ccc(O)cc2Oc2cc(O)ccc21)[C@@H](C)O)C(=O)N[C@@H](Cc1c[nH]c2ccccc12)C(=O)N[C@@H](Cc1c[nH]cn1)C(=O)N[C@@H](CCCCN)C(=O)N1CCC[C@H]1C(=O)O` [No. 13, reference compound] (5FAM-RRPTTWHKP-OH; C-terminus assumed), in series [2], the remaining at 2 h came to 29%. Besides, the “order of the strength of fluorescence” value in series [1] is “full-length≥trunc-ver3>trunc-ver1>>trunc-ver2”.
As for “R-mR-PTTWHKP-G-RRPTTWHKP (H-R[NMeR]PTTWHKPGRRPTTWHKP-OH; N-terminus and C-terminus assumed; SMILES C[C@@H](O)[C@H](NC(=O)[C@@H](NC(=O)[C@@H]1CCCN1C(=O)[C@H](CCCNC(=N)N)NC(=O)[C@H](CCCNC(=N)N)NC(=O)CNC(=O)[C@@H]1CCCN1C(=O)[C@H](CCCCN)NC(=O)[C@H](Cc1c[nH]cn1)NC(=O)[C@H](Cc1c[nH]c2ccccc12)NC(=O)[C@@H](NC(=O)[C@@H](NC(=O)[C@@H]1CCCN1C(=O)[C@H](CCCNC(=N)N)N(C)C(=O)[C@@H](N)CCCNC(=N)N)[C@@H](C)O)[C@@H](C)O)[C@@H](C)O)C(=O)N[C@@H](Cc1c[nH]c2ccccc12)C(=O)N[C@@H](Cc1c[nH]cn1)C(=O)N[C@@H](CCCCN)C(=O)N1CCC[C@H]1C(=O)O)”, the not cleaved in series [3] is 100% after 120 minutes.
Turning to “R-mR-PTTWHKP-G-pkhwttprr (H-R[NMeR]PTTWHKPG[dP][dK][dH][dW][dT][dT][dP][dR][dR]-OH; N-terminus and C-terminus assumed; SMILES C[C@H](O)[C@@H](NC(=O)[C@@H](Cc1c[nH]c2ccccc12)NC(=O)[C@@H](Cc1c[nH]cn1)NC(=O)[C@@H](CCCCN)NC(=O)[C@H]1CCCN1C(=O)CNC(=O)[C@@H]1CCCN1C(=O)[C@H](CCCCN)NC(=O)[C@H](Cc1c[nH]cn1)NC(=O)[C@H](Cc1c[nH]c2ccccc12)NC(=O)[C@@H](NC(=O)[C@@H](NC(=O)[C@@H]1CCCN1C(=O)[C@H](CCCNC(=N)N)N(C)C(=O)[C@@H](N)CCCNC(=N)N)[C@@H](C)O)[C@@H](C)O)C(=O)N[C@@H](C(=O)N1CCC[C@@H]1C(=O)N[C@H](CCCNC(=N)N)C(=O)N[C@H](CCCNC(=N)N)C(=O)O)[C@H](C)O)”, the not cleaved entry in series [3] is listed as “no degradation products within 120 minutes; 100% at 120 min”.
Take RRPTTWHKP: in series [3], the cleaved bond result is reported as “arginine-arginine, 5 min”; the fragment found result was “RPTTWHKP and RRPTTWH and RPTTWH and TTWHKP and TTWH and TWH, 30 min and WH, 60 min”.
For “RRPTTWHKP-G-RRPTTWHKP (RRPTTWHKPGRRPTTWHKP)”, in series [3], the fragment found entry is “TTWHKP-G-RRPTTWHKP, 60 min; also recorded: RPTTWHKP-G-RRPTTWHKP, 20 min”.
As for “RRPTTWHKP-G-RRPTTWHKP-G-RRPTTWHKP (RRPTTWHKPGRRPTTWHKPGRRPTTWHKP)”, the not cleaved entry in series [3] is listed as “no degradation products within 120 minutes; 100% at 120 min”.
“RRPTTWHKP-G-pkhwttprr (H-RRPTTWHKPG[dP][dK][dH][dW][dT][dT][dP][dR][dR]-OH; N-terminus and C-terminus assumed; SMILES C[C@H](O)[C@@H](NC(=O)[C@@H](Cc1c[nH]c2ccccc12)NC(=O)[C@@H](Cc1c[nH]cn1)NC(=O)[C@@H](CCCCN)NC(=O)[C@H]1CCCN1C(=O)CNC(=O)[C@@H]1CCCN1C(=O)[C@H](CCCCN)NC(=O)[C@H](Cc1c[nH]cn1)NC(=O)[C@H](Cc1c[nH]c2ccccc12)NC(=O)[C@@H](NC(=O)[C@@H](NC(=O)[C@@H]1CCCN1C(=O)[C@H](CCCNC(=N)N)NC(=O)[C@@H](N)CCCNC(=N)N)[C@@H](C)O)[C@@H](C)O)C(=O)N[C@@H](C(=O)N1CCC[C@@H]1C(=O)N[C@H](CCCNC(=N)N)C(=O)N[C@H](CCCNC(=N)N)C(=O)O)[C@H](C)O)”: the fragment found entry in series [3] is on record as “RPTTWHKP-G-pkhwttprr, Start; also recorded: TTWHKP-G-pkhwttprr, Start”.
In the case of “[FAM]-RRPTTWHKP (5FAM-RRPTTWHKP-OH; C-terminus assumed; SMILES C[C@@H](O)[C@H](NC(=O)[C@@H](NC(=O)[C@@H]1CCCN1C(=O)[C@H](CCCNC(=N)N)NC(=O)[C@H](CCCNC(=N)N)NC(=O)c1ccc2c(c1)C(=O)OC21c2ccc(O)cc2Oc2cc(O)ccc21)[C@@H](C)O)C(=O)N[C@@H](Cc1c[nH]c2ccccc12)C(=O)N[C@@H](Cc1c[nH]cn1)C(=O)N[C@@H](CCCCN)C(=O)N1CCC[C@H]1C(=O)O)”, in series [3], the fragment found entry was “[FAM]-RRPTTWH, 10 min”.
